# Assay results reported in patent publication US7358044B2, “Prophylactic and therapeutic benefits of a new class of immune stimulating peptides” (priority 2003, dated 2008).
# Marks after values point to notes of the source that are not given here.
# What was measured:
# [1] = test system: NK cells; assay: NK cell activity of splenocytes from treated mice, chromium-release assay; type: in vivo
# Excerpt: The results are depicted in Table 2.
# [2] = test system: clinical mastitis; assay: Clinical mastitis, ICPF versus Polyflex; type: in vivo, bovine
# Description: Nineteen animals were showing signs of clinical mastitis, i.e. abnormal milk appearance, painful teat, etc. These animals were randomly assigned to either a test or a control group. The control group animals (n=10) were treated according to the dairy's normal practice for treatment of clinical cases of mastitis, i.e. intramuscular injection of Polyflex brand (Fort Dodge Animal Health) of ampicillin (5 mg/lb×3 days). […] The SCC's for the treatment and control animals were compared 30 days later. The means of the pre-treatment test and control groups were determined to not be statistically different and neither were the standard deviations of the two groups statistically different. […] Two animals in the test group were refractory to treatment.
# [3] = test system: J774A.1 macrophages; assay: Macrophage activation, NO production (Greiss reagent); type: cell-based
# Description: J774A.1 macrophages (ATCC TIB67, 5×10^4 viable cells/well) were cultured in Dulbecco's Modified Eagle Medium (DMEM, high glucose)+10% FBS+100 U/ml penicillin+100 μg/ml streptomycin for 24 hr prior to treatment addition. NO production was determined colorimetrically using the Greiss reagent 24 hr after experimental treatments. […] Statistical significance was analyzed by comparison of mean values using the Student's t test (unpaired, two-tailed).
# [4] = 0.25 ml i.p. (5 mg ICPF or 20 μg Poly I:C), spleens harvested the following day, mean n = 3 with standard error
compound,measurement,setting,value
Poly I:C,Percent 51Cr released at E:T ratios 50:1,[1]; [4],19.1 ± 1.0^b Percent
same,Percent 51Cr released at E:T ratios 100:1,[1]; [4],31.5 ± 1.1^b Percent
same,Percent 51Cr released at E:T ratios 200:1,[1]; [4],35.3 ± 1.6^b Percent
same,direct activation of NK cells,"[1]; naive mice, E:T ratios of 200:1, 100:1, and 50:1",induced activation of NK cells
"CC1(C)S[C@@H]2[C@H](NC(=O)[C@H](N)c3ccccc3)C(=O)N2[C@H]1C(=O)O [Polyflex, ampicillin]",animals that showed improvement,"[2]; 30 days, Polyflex 5 mg/lb x 3 days i.m. (n=10)",one
same,average somatic cell count for the group increased by,"[2]; Polyflex 5 mg/lb x 3 days i.m., n=10, test period",7%
ICPF-peptide: Purified peptide from ICPF (RSVSLSYRF),induction of NO in combination with LPS,[3]; ICPF 100 μg/ml or ICPF-peptide 10 μg/ml with LPS 0-10 μg/ml in the absence of IFN-γ,unable to induce NO
same,amount of NO induced by the minimal stimulatory dose of LPS + IFN-γ,"[3]; ICPF-peptide 0.1-100 μg/ml, LPS 10 ng/ml + IFN-γ 1-5 U/ml",did not modulate the amount of NO
same,dose of LPS required to induce NO,"[3]; IFN-γ stimulated macrophages, ICPF 100 μg/ml, ICPF-peptide 10 μg/ml",Neither ICPF (100 μg/ml) nor ICPF-peptide (10 μg/ml) altered the dose of LPS required to induce NO
same,dose of IFN-γ required to induce NO,"[3]; LPS-stimulated macrophages, ICPF 100 μg/ml, ICPF-peptide 10 μg/ml",Neither ICPF (100 μg/ml) nor ICPF-peptide (10 μg/ml) altered the dose of IFN-γ required to induce NO
same,induction of NO,"[3]; purified peptide 0.1-100 μg/ml, absence or presence of IFN-γ",failed to induce NO
